Assay results as given in US11185522B2, “Cilastatin for use in the treatment of sepsis” (FUNDACIÓN PARA LA INVESTIGACIÓN BIOMÉDICA DEL HOSPITAL …, priority 2016, dated 2021).
“And” between values parts separate entries of the source, which are not always exact repeats. Equal values may be shown once.

How the values were obtained:
[1] = test system: CLP-induced sepsis rats
Procedure: (§1) Sepsis was developed by cecal ligation puncture model (CLP) as described in several papers (Li G et al, Clin Exp Pharmacol Physiol. 2014; 41(7):459-68, Seija M et al, Shock. 2012; 38(4):403-10). Animals were anesthetized with ketamine (Ketolar 50 mg/ml) 90 mg/kg intraperitoneal (ip) and diazepam (Valium 10 mg/2 mL) 5 mg/kg ip. Under sterile conditions a 3-cm midline laparotomy was performed to allow exposure of the cecum, and a 4-0 silk ligature was placed 0.75 cm from the cecal tip. It was punctured once with a 14-gauge needle. A second ligature was placed 1.5 cm proximal to the first one and distal to the ileocecal valve to avoid intestinal obstruction. Three punctures were made in the cecum between the two ligatures with a 16-gauge needle. The cecum was gently squeezed until a 1-mm column of fecal material was exteriorized. The bowel was then returned to the abdomen and the incision was closed in layers. A sham operation (laparotomy and cecal exposure without any other manipulation) was performed as control. At the end of the operation, all rats were resuscitated with normal saline (50 ml/kg body weight) subcutaneously in a single dose and analgesic treatment with buprenorphine (buprex 0.3 mg/ml) 0.1 mg/kg every 12 hours immediately after surgery and until the day of killing.
Serum creatinine, blood urea nitrogen levels (BUN), proteins and other parameters were measured using the Dimension RxL autoanalyzer (Dade-Behring, Siemens, Eschborn, Germany). The glomerular filtration rate was calculated using the creatinine clearance rate.
The animals were randomly allocated into four groups (n=10 in each group): • i. sham-operated group, • ii. CLP group, • iii. sham-operated group+cilastatin, and • iv. CLP group+cilastatin.
(§2) In the treatment groups, the rats were treated with cilastatin 150 mg/kg ip immediately and at 24 h after induction of sepsis or the sham-operation. Cilastatin was substituted by vehicle (0.5 mL/100 g) in the non-treatment groups. […] All animals were then placed in the metabolic cages for 24-h urine collection.
(§3) Forty-eight (48) hours after the sepsis-induction/sham-operation, all rats were anesthetized with ketamine (10 mg/kg) and diazepam (4 mg/kg) and killed. Blood samples were collected by insertion of a cannula into the abdominal aorta, and serum was isolated by centrifugation in ACUETTE® Z Serum Sep Clot Activator tubes (Greiner bio-one), at 2000 rpm for 15 h at 4° C., and then stored at −80° C. until use. The kidneys were perfused with cold saline and quickly removed. Kidney samples were snap-frozen in liquid nitrogen and kept at −80° C. or fixed in 4% paraformaldehyde (24 h) and paraffin-embedded for the different studies.

[2] = test system: Cu/Zn SOD; settings: septic rats; immunohistochemistry and Western blotting
Procedure: as §1
(§4) Immunohistochemistry was carried out as described previously (Humanes B et al, Kidney International. 2012; 82(6):652-663). […] The surface area labeled by antibodies was evaluated by quantitative image analysis as previously described (Lazaro A. et al. Antiox Redox Signal. 2005; 7:1285-1293). In brief, the percentage of the stained area was calculated as the ratio of suitable binary thresholded image and the total field area. […]
(§5) Western blotting was performed as described previously (Humanes B et al, Kidney International. 2012; 82(6):652-663). […] All signals were visualized with an Alliance 4.7 (Uvitec, Cambridge, UK) and analyzed by densitometric scanning (ImageJ; http://rsbweb.nih.gov/ij/index.html). […]

[3] = test system: KIM-1; settings: sepsis+cil vs control (SHAM) levels; immunohistochemistry and Western blot; 48 h
Procedure: as §1, §4, §5

[4] = test system: cleaved caspase-3; settings: septic rats; immunohistochemistry and Western blot of the renal cortex
Procedure: as §1, §4, §5

[5] = septic rats
Procedure: as §1, §2
(§6) Forty-eight (48) hours after the sepsis-induction/sham-operation, all rats were anesthetized with ketamine (10 mg/kg) and diazepam (4 mg/kg) and killed. Blood samples were collected by insertion of a cannula into the abdominal aorta, and serum was isolated by centrifugation in ACUETTE® Z Serum Sep Clot Activator tubes (Greiner bio-one), at 2000 rpm for 15 h at 4° C., and then stored at −80° C. until use. The kidneys were perfused with cold saline and quickly removed. […]

[6] = test system: CLP-induced sepsis rats; settings: day 2 after CLP surgery
Procedure: as §1, §2, §6

[7] = test system: kidney tubular cell apoptosis; settings: kidneys of septic rats
Procedure: as §1, §2, §6

[8] = test system: FasL; settings: septic rats; Western blot
Procedure: as §1, with “At the end of the operation, all rats were resuscitated with normal saline (50 ml/kg body weight) subcutaneously in a single dose and analgesic treatment with buprenorphine (buprex 0.3 mg/ml) 0.1 mg/kg every 12 hours immediately after surgery and until the day of killing.” left out
as §5

[9] = test system: cleaved caspase-8; settings: septic rats; Western blot
Procedure: as §1, with “At the end of the operation, all rats were resuscitated with normal saline (50 ml/kg body weight) subcutaneously in a single dose and analgesic treatment with buprenorphine (buprex 0.3 mg/ml) 0.1 mg/kg every 12 hours immediately after surgery and until the day of killing.” left out
as §5

[10] = test system: 4-HNE; settings: septic rats
Procedure: as §1
(§7) Immunohistochemistry was carried out as described previously (Humanes B et al, Kidney International. 2012; 82(6):652-663). The primary antibodies used were polyclonal goat anti-rat TIM-1/KIM-1/HAVCR (1:20; R&D systems); anti-cleaved caspase-3 (Asp175) (1:50; Cell Signaling Technology, Inc., Beverly, Mass.) mouse monoclonal anti-4-HNE (1:75; Oxis International Inc., Foster City, Calif.); polyclonal rabbit anti-Cu/Zn SOD (1:1000; Assay Designs, Stressgen, Ann Arbor, Mich., USA); monoclonal mouse anti-CD68 (monocyte/macrophage, 1:125, Abd Serotec, Oxford, UK); polyclonal goat anti-VCAM-1 (1:100; Santa Cruz Biotechology, Inc., Beverly, Mass., USA); polyclonal rabbit anti-TGFβ1 antibody (1:100; Santa Cruz Biotechnology); monoclonal mouse anti-ICAM-1 (1:100; Santa Cruz). […] The surface area labeled by antibodies was evaluated by quantitative image analysis as previously described (Lazaro A. et al. Antiox Redox Signal. 2005; 7:1285-1293). In brief, the percentage of the stained area was calculated as the ratio of suitable binary thresholded image and the total field area. For each sample, the mean staining area was obtained by analysis of the entire sample.
as §2, §3

[11] = test system: CD68; settings: cilastatin-treated septic rats compared to the sepsis group
Procedure: as §1, §7, §2, §3

[12] = test system: ICAM-1; settings: septic rats; immunohistochemistry
Procedure: as §1, §7, §2, §3

[13] = test system: TGFβ; settings: septic animals; immunohistochemistry
Procedure: as §1, §7, §2, §3

[14] = test system: VCAM-1; settings: septic rats; immunohistochemistry
Procedure: as §1, §7, §2, §3

[15] = test system: CLP-induced sepsis rats; remark: listed apart in the source
Procedure: as §1

[16] = sepsis+cil group, 48 hours after induction of sepsis, cilastatin 150 mg/kg ip immediately and at 24 h, mean±s.e.m.

CC1(C)C[C@@H]1C(=O)N/C(=C\CCCCSC[C@H](N)C(=O)O)C(=O)O [cilastatin, (Z)-7-[(2R)-2-Amino-3-hydroxy-3-oxopropyl]sulfanyl-2-{[(1S)-2,2-dimethylcyclopropanecarbonyl]amino}hept-2-enoic acid]
Protein excretion ([1]; CLP group with cilastatin vs CLP group, 48 h): significantly reduced
Proteinuria ([1]; sepsis+cil group (fourth value, group not labelled), 48 hours, cilastatin 150 mg/kg ip, mean±s.e.m.): 1889±347
Blood urea nitrogen [1, 16]: 75±7
Serum creatinine [1, 16]: 0.38±0.02
Glomerular filtration rate ([1]; sepsis+cil group, 48 hours, calculated using the creatinine clearance rate, cilastatin 150 mg/kg ip, mean±s.e.m.): 0.45±0.07
Sepsis-induced dysfunctions: serum BUN and creatinine increase, glomerular filtration rate decrease ([1]; septic animals, cilastatin 150 mg/kg ip, 48 h): totally prevented
Cu/Zn SOD expression in renal cortex [2]: able to restore its expression
KIM-1 protein level [3]: partially restored
Elevated caspase-3 levels [4]: significantly lowered
Antioxidant capacity in urine [5]: improved
Semi-quantitative renal injury score [6]: reduced the renal injury score
Number of TUNEL-positive cells [7]: significantly decreased
Renal cortex FasL [8]: attenuated
Renal cortex cleaved caspase-8 [9]: attenuated
Sepsis-enhanced 4-HNE staining in the kidneys [10]: completely prevented
CD68 positive cells in renal samples [11]: fewer
Sepsis-induced increase of ICAM-1 expression [12]: significantly reduced
TGFβ1 levels in renal tissue [13]: significantly decreased
Sepsis-induced increase of VCAM-1 expression [14]: significantly reduced
Decrease in mortality ([15]; cilastatin vs CLP plus vehicle, 48 h after CLP): 33% and 30%
Mortality (%) ([15]; sepsis+cil group, monitored for 48 h after CLP, cilastatin 150 mg/kg immediately and at 24 h, 6 rats per group, sepsis vehicle group 83%): 50%
